Reference: patent US20230278995A1, “1,3,4-OXADIAZOLE DERIVATIVE COMPOUNDS AS HISTONE DEACETYLASE 6 INHIBITOR, AND THE PHARMACEUTICAL COMPOSITION COMPRISING THE SAME” (CHONG KUN DANG PHARMACEUTICAL CORP., priority 2020, published 2023)

Assays:
[1] = molecular target: T1, human recombinant HDAC1 (Homo sapiens, UniProt Q13547); test: HDAC enzyme activity inhibition assay (HDAC Fluorimetric Drug Discovery Kit), HDAC1; assay type: biochemical; details: human recombinant HDAC1, Fluor de Lys-SIRT1 substrate, 30° C. 60 minutes
T1 construct: purchased Enzo Life Sciences, Inc. BML-SE456
T1 sequence (Q13547 whole entry): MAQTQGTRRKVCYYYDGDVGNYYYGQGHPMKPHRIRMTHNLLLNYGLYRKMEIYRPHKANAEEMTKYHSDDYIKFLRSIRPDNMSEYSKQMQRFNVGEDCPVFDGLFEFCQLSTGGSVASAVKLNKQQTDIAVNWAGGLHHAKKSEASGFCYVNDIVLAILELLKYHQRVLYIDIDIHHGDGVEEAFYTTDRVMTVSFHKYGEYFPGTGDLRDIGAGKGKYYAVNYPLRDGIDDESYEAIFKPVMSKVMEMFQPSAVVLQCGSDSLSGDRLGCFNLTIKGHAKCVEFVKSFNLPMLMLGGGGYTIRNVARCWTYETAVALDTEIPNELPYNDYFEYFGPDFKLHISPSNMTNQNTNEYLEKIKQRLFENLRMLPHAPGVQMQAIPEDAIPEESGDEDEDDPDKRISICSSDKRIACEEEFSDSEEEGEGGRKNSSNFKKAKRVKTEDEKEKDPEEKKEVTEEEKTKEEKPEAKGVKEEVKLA
Outline: (§1)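 The preceding reaction ran 60 min at 30 °C with 0.3 μg recombinant human enzyme, HDAC1 or HDAC6 under an identical protocol, and 10 μM Fluor de Lys-SIRT1 substrate, across 5-fold diluted compound.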

[2] = molecular target: T2, human recombinant HDAC6 (Homo sapiens, UniProt Q9UBN7); test: HDAC enzyme activity inhibition assay (HDAC Fluorimetric Drug Discovery Kit), HDAC6; assay type: biochemical; details: for HDAC6 selectivity (fold): HDAC1 vs HDAC6; for IC50: human recombinant HDAC6, same protocol as HDAC1
T2 construct: purchased Calbiochem Inc. 382180
T2 sequence (Q9UBN7 1-1215): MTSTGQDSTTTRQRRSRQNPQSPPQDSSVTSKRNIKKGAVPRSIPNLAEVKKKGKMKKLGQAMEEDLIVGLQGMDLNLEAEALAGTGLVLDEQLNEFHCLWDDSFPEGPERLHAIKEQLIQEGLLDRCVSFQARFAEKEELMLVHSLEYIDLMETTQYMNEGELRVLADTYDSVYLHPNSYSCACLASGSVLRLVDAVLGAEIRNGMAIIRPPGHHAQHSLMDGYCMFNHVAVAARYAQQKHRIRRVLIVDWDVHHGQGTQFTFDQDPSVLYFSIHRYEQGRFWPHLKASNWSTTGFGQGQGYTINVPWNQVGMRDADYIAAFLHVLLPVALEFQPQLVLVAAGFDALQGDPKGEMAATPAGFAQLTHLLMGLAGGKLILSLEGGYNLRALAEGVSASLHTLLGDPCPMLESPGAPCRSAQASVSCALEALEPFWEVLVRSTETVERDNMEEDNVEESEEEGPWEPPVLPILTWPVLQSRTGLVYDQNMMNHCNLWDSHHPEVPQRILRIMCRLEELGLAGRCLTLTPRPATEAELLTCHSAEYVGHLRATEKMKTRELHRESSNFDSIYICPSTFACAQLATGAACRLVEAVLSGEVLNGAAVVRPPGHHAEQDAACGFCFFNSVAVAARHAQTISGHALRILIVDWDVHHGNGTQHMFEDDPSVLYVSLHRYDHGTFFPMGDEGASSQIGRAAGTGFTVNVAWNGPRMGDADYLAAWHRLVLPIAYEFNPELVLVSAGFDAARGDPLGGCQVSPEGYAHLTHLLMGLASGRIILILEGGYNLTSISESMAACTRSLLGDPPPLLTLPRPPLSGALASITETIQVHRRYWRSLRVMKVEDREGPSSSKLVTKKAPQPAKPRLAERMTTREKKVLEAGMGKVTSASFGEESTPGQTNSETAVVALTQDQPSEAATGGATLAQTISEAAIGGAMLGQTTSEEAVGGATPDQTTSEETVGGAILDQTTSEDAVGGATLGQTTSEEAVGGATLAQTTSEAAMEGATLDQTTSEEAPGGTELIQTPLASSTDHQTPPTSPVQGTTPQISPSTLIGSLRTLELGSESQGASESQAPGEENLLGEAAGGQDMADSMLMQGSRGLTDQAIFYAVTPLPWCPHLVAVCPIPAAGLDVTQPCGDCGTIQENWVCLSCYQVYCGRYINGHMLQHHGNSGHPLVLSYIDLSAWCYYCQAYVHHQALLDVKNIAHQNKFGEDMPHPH
Outline: as §1

Row | SMILES | IC50 [1] | HDAC6 selectivity (fold) [2] | IC50 [2]
1 | CCCN1CCC(N2CC(F)(C(=O)N(Cc3ccc(-c4nnc(C(F)F)o4)cn3)c3ccccc3)C2)CC1 [Compound 3112, N-((5-(5-(difluoromethyl)-1,3,4-oxadiazol-2-yl)pyridin-2-yl)methyl)-3-fluoro-N-phenyl-1-(1-propylpiperidin-4-yl)azetidine-3-carboxamide] | > 50 µM | 2,024 fold | 24.7 nM
2 | CCCCN1CCC(N2CC(F)(C(=O)N(Cc3ccc(-c4nnc(C(F)F)o4)cn3)c3ccccc3)C2)CC1 [Compound 3113, 1-(1-butylpiperidin-4-yl)-N-((5-(5-(difluoromethyl)-1,3,4-oxadiazol-2-yl)pyridin-2-yl)methyl)-3-fluoro-N-phenylazetidine-3-carboxamide] | > 50 µM | 1,543 fold | 32.4 nM
3 | CC(C)CN1CCC(N2CC(F)(C(=O)N(Cc3ccc(-c4nnc(C(F)F)o4)cn3)c3ccccc3)C2)CC1 [Compound 3114, N-((5-(5-(difluoromethyl)-1,3,4-oxadiazol-2-yl)pyridin-2-yl)methyl)-3-fluoro-1-(1-isobutylpiperidin-4-yl)-N-phenylazetidine-3-carboxamide] | > 50 µM | 1,524 fold | 32.8 nM
4 | CC(C)N1CCC(N2CC(F)(C(=O)N(Cc3ccc(-c4nnc(C(F)F)o4)cn3)c3ccccc3)C2)CC1 [Compound 3115, N-((5-(5-(difluoromethyl)-1,3,4-oxadiazol-2-yl)pyridin-2-yl)methyl)-3-fluoro-1-(1-isopropylpiperidin-4-yl)-N-phenylazetidine-3-carboxamide] | > 50 µM | 2,040 fold | 24.5 nM
5 | CC(=O)N1CC(F)(C(=O)N(Cc2ccc(-c3nnc(C(F)F)o3)cn2)c2ccccc2)C1 [Compound 3152, 1-acetyl-N-((5-(5-(difluoromethyl)-1,3,4-oxadiazol-2-yl)pyridin-2-yl)methyl)-3-fluoro-N-phenylazetidine-3-carboxamide] | > 50 µM | 1,377 fold | 36.3 nM
6 | CCC(=O)N1CC(F)(C(=O)N(Cc2ccc(-c3nnc(C(F)F)o3)cn2)c2ccccc2)C1 [Compound 3153, N-((5-(5-(difluoromethyl)-1,3,4-oxadiazol-2-yl)pyridin-2-yl)methyl)-3-fluoro-N-phenyl-1-propionylazetidine-3-carboxamide] | > 50 µM | 1,347 fold | 37.1 nM
7 | CCCC(=O)N1CC(F)(C(=O)N(Cc2ccc(-c3nnc(C(F)F)o3)cn2)c2ccccc2)C1 [Compound 3154, 1-butyryl-N-((5-(5-(difluoromethyl)-1,3,4-oxadiazol-2-yl)pyridin-2-yl)methyl)-3-fluoro-N-phenylazetidine-3-carboxamide] | > 50 µM | 1,506 fold | 33.2 nM
8 | CC(C)CC(=O)N1CC(F)(C(=O)N(Cc2ccc(-c3nnc(C(F)F)o3)cn2)c2ccccc2)C1 [Compound 3155, N-((5-(5-(difluoromethyl)-1,3,4-oxadiazol-2-yl)pyridin-2-yl)methyl)-3-fluoro-1-(3-methylbutanoyl)-N-phenylazetidine-3-carboxamide] | > 50 µM | 1,326 fold | 37.7 nM
9 | O=C(N(Cc1ccc(-c2nnc(C(F)F)o2)cn1)c1ccccc1)C1(F)CN(CC2CCCCC2)C1 [Compound 3156, 1-(cyclohexylmethyl)-N-((5-(5-(difluoromethyl)-1,3,4-oxadiazol-2-yl)pyridin-2-yl)methyl)-3-fluoro-N-phenylazetidine-3-carboxamide] | > 50 µM | 649 fold | 77 nM
10 | COCCC(=O)N1CC(F)(C(=O)N(Cc2ccc(-c3nnc(C(F)F)o3)cn2)c2ccccc2)C1 [Compound 3157, N-((5-(5-(difluoromethyl)-1,3,4-oxadiazol-2-yl)pyridin-2-yl)methyl)-3-fluoro-1-(3-methoxypropanoyl)-N-phenylazetidine-3-carboxamide] | > 50 µM | 941 fold | 53.1 nM
11 | O=C(C1CC1)N1CC(F)(C(=O)N(Cc2ccc(-c3nnc(C(F)F)o3)cn2)c2ccccc2)C1 [Compound 3158, 1-(cyclopropanecarbonyl)-N-((5-(5-(difluoromethyl)-1,3,4-oxadiazol-2-yl)pyridin-2-yl)methyl)-3-fluoro-N-phenylazetidine-3-carboxamide] | > 50 µM | 1,400 fold | 35.7 nM
12 | O=C(C1CCC1)N1CC(F)(C(=O)N(Cc2ccc(-c3nnc(C(F)F)o3)cn2)c2ccccc2)C1 [Compound 3159, 1-(cyclobutanecarbonyl)-N-((5-(5-(difluoromethyl)-1,3,4-oxadiazol-2-yl)pyridin-2-yl)methyl)-3-fluoro-N-phenylazetidine-3-carboxamide] | > 50 µM | 1,650 fold | 30.3 nM
13 | O=C(C1CCCC1)N1CC(F)(C(=O)N(Cc2ccc(-c3nnc(C(F)F)o3)cn2)c2ccccc2)C1 [Compound 3160, 1-(cyclopentanecarbonyl)-N-((5-(5-(difluoromethyl)-1,3,4-oxadiazol-2-yl)pyridin-2-yl)methyl)-3-fluoro-N-phenylazetidine-3-carboxamide] | > 50 µM | 1,466 fold | 34.1 nM
14 | O=C(N(Cc1ccc(-c2nnc(C(F)F)o2)cn1)c1ccccc1)C1(F)CN(C2CCSCC2)C1 [Compound 3162, N-((5-(5-(difluoromethyl)-1,3,4-oxadiazol-2-yl)pyridin-2-yl)methyl)-3-fluoro-N-phenyl-1-(tetrahydro-2H-thiopyran-4-yl)azetidine-3-carboxamide] | > 50 µM | 2,272 fold | 22 nM
15 | CCC(=O)N1CC(F)(C(=O)N(Cc2ccc(-c3nnc(C(F)F)o3)cn2)c2cccc(F)c2)C1 [Compound 3163, N-((5-(5-(difluoromethyl)-1,3,4-oxadiazol-2-yl)pyridin-2-yl)methyl)-3-fluoro-N-(3-fluorophenyl)-1-propionylazetidine-3-carboxamide] | > 50 µM | 2,155 fold | 23.2 nM
16 | CC(=O)N1CC(F)(C(=O)N(Cc2ccc(-c3nnc(C(F)F)o3)cn2)c2cccc(F)c2)C1 [Compound 3164, 1-acetyl-N-((5-(5-(difluoromethyl)-1,3,4-oxadiazol-2-yl)pyridin-2-yl)methyl)-3-fluoro-N-(3-fluorophenyl)azetidine-3-carboxamide] | > 50 µM | 2,808 fold | 17.8 nM
17 | CCCC(=O)N1CC(F)(C(=O)N(Cc2ccc(-c3nnc(C(F)F)o3)cn2)c2cccc(F)c2)C1 [Compound 3165, 1-butyryl-N-((5-(5-(difluoromethyl)-1,3,4-oxadiazol-2-yl)pyridin-2-yl)methyl)-3-fluoro-N-(3-fluorophenyl)azetidine-3-carboxamide] | > 50 µM | 2,066 fold | 24.2 nM
18 | CC(C)CC(=O)N1CC(F)(C(=O)N(Cc2ccc(-c3nnc(C(F)F)o3)cn2)c2cccc(F)c2)C1 [Compound 3166, N-((5-(5-(difluoromethyl)-1,3,4-oxadiazol-2-yl)pyridin-2-yl)methyl)-3-fluoro-N-(3-fluorophenyl)-1-(3-methylbutanoyl)azetidine-3-carboxamide] | > 50 µM | 741 fold | 67.4 nM
19 | O=C(C1CCC1)N1CC(F)(C(=O)N(Cc2ccc(-c3nnc(C(F)F)o3)cn2)c2cccc(F)c2)C1 [Compound 3168, 1-(cyclobutanecarbonyl)-N-((5-(5-(difluoromethyl)-1,3,4-oxadiazol-2-yl)pyridin-2-yl)methyl)-3-fluoro-N-(3-fluorophenyl)azetidine-3-carboxamide] | > 50 µM | 2,906 fold | 17.2 nM
